Experimental data: PubChem BioAssay AID2305 (GlaxoSmithKline (GSK), 2010)

System: P. falciparum 3D7 growth, pLDH absorbance
Experiment: blood-stage malaria parasite growth potency – strain 3D7, dose response (AID 2305)

| Compound | IC50 [nM] |
| --- | --- |
| CCCCCCC(C)(C)c1cc(O)c2c(c1)OC(C)(C)c1ccncc1-2 | 180 |
| O=c1c2ccccc2nc(C=Cc2ccc([N+](=O)[O-])cc2)n1-c1ccccn1 | 380 |
| CCCCNCCOc1ccc(-c2nc(-c3ccccc3)c(-c3ccccc3)[nH]2)cc1 | 680 |
| N#Cc1ccc2[nH]cc(C(=O)CCCCCN(Cc3ccccc3)Cc3ccccc3)c2c1 | 790 |
| COc1ccc2nccc([C@@H](O)CN3CCC(NCc4ccc5sc(=O)[nH]c5c4)CC3)c2c1 | 290 |
| O=C(Nc1ccc(OCc2ccccc2)cc1)c1nc2ccccc2nc1Cl | 250 |
| C[C@H](O)[C@@](C)(CO)NCc1ccc2c3c(cccc13)-c1ccccc1-2 | 820 |
| CC(C)(C)OC(=O)NCc1ccc(Nc2nnc(-c3cccc(C(=O)NCCC(c4ccccc4)c4ccccc4)c3)o2)cc1 | 580 |
| CC(=NNC(=S)NC(c1ccccc1)c1ccccc1)c1ccccn1 | 900 |
| O=C(/C=C/c1ccc(C(F)(F)F)cc1)NCCCCCN1CCCN(C(=O)Nc2ccc(Cl)c(Cl)c2)CC1 | 420 |
| CC(C)N1CCN(C(CN2CCN(CCCOc3ccccc3-c3ccccc3)CC2)c2ccc(F)cc2)CC1 (stereo unspecified) | 790 |
| Cc1cc2c(NC(=O)NC3CCN(Cc4ccc(Cl)c(Cl)c4)CC3)cccc2cn1 | 680 |
| CCCN(CCC)C(C)CCC(C)Nc1c2ccc(Cl)cc2nc2ccc(OC)cc12 (stereo unspecified) | 70 |
| O=C(N[C@@H](Cc1ccccc1)[C@H](O)CNCCC(F)(F)F)c1cccc(OCC2CC2)c1 | 620 |
| Clc1ccc(-c2cc(-c3csc(NCCN4CCCCC4)n3)on2)cc1 | 990 |
| OCC1CCN(Cc2cccc(-c3ccc(-c4nc5ccc(C(F)(F)F)cc5[nH]4)s3)c2)CC1 | 590 |
| CN1CCN(c2cccc(NC(=O)c3ccc(-c4ccc(C#N)cc4)cc3)c2)CC1 | 1260 |
| CC(C)CCNc1nc(NCc2ccccc2)c2cc(O)ccc2n1 | 110 |
| c1ccc(-c2nc(NCCCn3ccnc3)cc(-c3ccncc3)n2)cc1 | 170 |
| O=C(O)c1ccc2c(c1)N(C(=O)CNCc1ccc(F)cc1)CC(=O)N2CCCc1ccccc1 | 920 |
| Cn1c(NC(=O)C2CCC(CNC(=O)c3ccc(O)c(-c4ccc(Cl)c(Cl)c4)c3)CC2)nc2ccccc21 (stereo unspecified) | 650 |
| COc1ccc(-c2ccccc2OCCCNc2nc(NCCc3ccc(O)cc3)nc(N3CCNCC3)n2)cc1 | 790 |
| O=C(Nc1ccccc1-c1nc2ccccc2s1)C(Cl)(Cl)Cl | 640 |
| CCOc1ccc(C(C)NC(=O)C2COc3ccccc3O2)cc1OCC (stereo unspecified) | 900 |

| Compound | IC50 [nM] |
| --- | --- |
| Cc1cccc(C)c1OC(=O)CSc1nnc(-c2ccccc2O)o1 | 880 |
| Cc1ccc2c(-c3ccc([N+](=O)[O-])o3)cc(C)nc2c1 | 40 |
| Cc1[nH]cc(Br)c(=O)c1-c1ccc(Oc2ccc(OC(F)(F)F)cc2)cc1 | 330 |
| CNC(=O)c1ccccc1Nc1nc(Nc2ccc(CCN3CCN(C)CC3)cc2)ncc1Cl | 650 |
| CCc1cn2c3c(cc(C(=O)N[C@@H](Cc4ccccc4)[C@H](O)CNC4CC4)cc13)N(CC)S(=O)(=O)CC2 | 110 |
| Cc1cc(C(F)(F)F)n2nc(C(=O)N(C)Cc3cncn3Cc3ccc(F)cc3)cc2n1 | 830 |
| CC(=O)Nc1ccc(CN2Cc3ccc(NC(=O)Nc4ccc(Oc5ccccc5)cc4)cc3C2)s1 | 920 |
| O=C(NC1CCN(Cc2ccccc2)CC1)c1ccc(-c2nc3cc4ccccc4cc3[nH]2)s1 | 600 |
| CCOc1cc(C(=O)NC2CCN(Cc3ccccc3)CC2)ccc1-c1nc2cc(Cl)c(F)cc2[nH]1 | 800 |
| CCN(CCCN1CCCCC1)c1cc(C)nc(Nc2ccc3c(c2)CCC3)n1 | 390 |
| COc1cc(NC(=O)CCCCCCCCN2CCN(C)CC2)c2ncccc2c1 | 890 |
| Cc1ccc(CN2CCCN(Cc3cccc(NC(=O)c4ccc(Cl)c(Cl)c4)c3)CC2)cc1 | 900 |
| Clc1ccc(-c2ccc(CNCCCN3CCCC3)cc2)cc1 | 1060 |
| Cc1nc(-c2cccc(Nc3nccc(NCC(O)c4ccccc4)n3)c2)cs1 (stereo unspecified) | 790 |
| CC(C)COc1ccc(Cl)cc1Cc1nc(-c2nc3ccc(CN4CCCC4)cc3[nH]2)co1 | 730 |
| C=CCN1C(=O)c2[nH]nc(-c3cc(C)c(C)cc3O)c2C1c1cccc(Br)c1 (stereo unspecified) | 1160 |
| COc1cc(NCCCNCc2cn(S(=O)(=O)c3ccccc3)c3ccccc23)nc2ccccc12 | 390 |
| Oc1c(Cl)cc(-c2ccccc2)cc1CNC1CCCCC1 | 750 |
| O=C(/C=C/c1ccc(Cl)c(Cl)c1)N1CCC(CN2CCC(c3c[nH]c4ccncc34)CC2)CC1 | 730 |
| CS(=O)(=O)c1ccc(CCNCc2ccc(-c3ccc(CN(C(=O)c4cccc(C#N)c4)C4CCN(Cc5ccccc5)CC4)cc3)nc2)cc1 | 980 |
| Fc1cccc(Cl)c1-c1nc(NCCC(c2ccccc2)c2ccccc2)no1 | 550 |
| COC(=O)c1ccc(C(=O)NCCCCN2CCC(c3ccc4c(c3OC)CCCC4)CC2)cc1-c1ccc(C(F)(F)F)cc1 | 1150 |
| O=C(Nc1ccc(OC2CCN(Cc3ccccc3)CC2)c(Cl)c1)c1cccs1 | 310 |
| CC(C)CNCc1ccc(-c2ccc(CN(C(=O)NC3CCCCC3)C3CCN(Cc4ccccc4)CC3)cc2)cc1 | 780 |

| Compound | IC50 [nM] |
| --- | --- |
| CCCCCCc1cc2cc(-c3csc(C=Cc4ccccc4)n3)c(=O)oc2cc1O | 970 |
| CCOc1ccc2nc(N(CCCn3ccnc3)C(=O)C=Cc3cccs3)sc2c1 | 780 |
| COc1ccc(N2C(=O)c3c(c4ccccc4n3C)C2c2ccccc2O)cc1 (stereo unspecified) | 120 |
| CC(C)CCN1CCCN(Cc2ccc(C(=O)Nc3ccc(Cl)cc3)cc2)CC1 | 800 |
| CCCCCCCCc1c(C)[nH]c(C)c(C#N)c1=O | 400 |
| NC(=O)c1ccc(C(=O)Nc2cccc(-c3ccc(-c4nc5ccc(C(F)(F)F)cc5[nH]4)cc3)c2)cc1 | 510 |
| O=C(C=Cc1ccc(-c2ccccc2)cc1)N1CCC(CCN2CCC(c3c[nH]c4ccccc34)CC2)CC1 | 1120 |
| NC(N)=Nc1nc(-c2cccc(NC(=O)NCc3ccc(OC(F)(F)F)cc3)c2)cs1 | 700 |
| COc1ccc2c(c1)[nH]c1c(/C=C/c3ccc([N+](=O)[O-])cc3)nccc12 | 860 |
| O=C(C=Cc1ccc(F)cc1)NC1CCC(CCN2CCc3ccc(-c4cnccn4)cc3CC2)CC1 (stereo unspecified) | 690 |
| O=C(/C=C/c1ccc(Cl)c(Cl)c1)NC1CCC(CN2CCC(c3c[nH]c4cc(O)ccc34)CC2)CC1 (stereo unspecified) | 810 |
| CS(=O)(=O)c1ccc(CCNCc2ccc(-c3cccc(-c4nc5ccccc5[nH]4)c3)cc2)cc1 | 190 |
| Cc1cc(-c2cccc3c(C(=O)N4CCc5cc6nccc(N7CCN8CCC[C@H]8C7)c6cc54)cccc23)cc(C)n1 | 710 |
| O=C1CCCC1Sc1nc2ccccc2c(=O)n1-c1ccc(Cl)c(Cl)c1 (stereo unspecified) | 730 |
| COc1cc(Cc2cnc(N)nc2N)cc(OCCCCC2SC(=O)NC2=O)c1OC (stereo unspecified) | 30 |
| Oc1ccc(CCNc2nc(NCCCOc3ccccc3-c3ccncc3)nc(N3CCNCC3)n2)cc1 | 1110 |
| CC1CCCN1Cc1ccc(-c2ccc3c(=O)cc(CCc4cccc(F)c4F)n(CC(=O)N(C)Cc4ccc(-c5ccc(C(F)(F)F)cc5)cc4)c3n2)cc1 (stereo unspecified) | 820 |
| O=C(Nc1ccc(-c2nc3cc4ccccc4cc3[nH]2)cc1)c1cccc(Br)c1 | 360 |
| O=C(NCC1CCC(C(=O)NCc2cccc(C(F)(F)F)c2)CC1)c1ccc(O)c(-c2ccc(Cl)c(Cl)c2)c1 (stereo unspecified) | 710 |
| CN(C)CCCNCc1ccc(-c2ccc(F)c(Cl)c2)o1 | 800 |
| CCn1c(-c2nonc2N)nc2c(-c3cccc(NC(=O)Nc4cccc(OC)c4)c3)ncc(OCCCN)c21 | 770 |
| OC1CCC(Nc2ccc3ncc(-c4ccc(Cl)cc4)n3n2)CC1 (stereo unspecified) | 820 |
| O=C(NCC1CCN(CC2CCCCC2)C1)c1cc(-c2cccc(Cl)c2)cs1 (stereo unspecified) | 1090 |
| CNC(=O)Cc1ccc(C(=O)Nc2cccc(-c3cccc(-c4nc5ccc(C(F)(F)F)cc5[nH]4)c3)c2)cc1 | 440 |

| Compound | IC50 [nM] |
| --- | --- |
| O=C(NC1CCCCC1)N(Cc1ccc(-c2cccc(CNCc3ccc4c(c3)OCO4)c2)cc1)C1CCN(Cc2ccccc2)CC1 | 690 |
| O=c1cc(NCCCNCc2ccc(C(F)(F)F)s2)[nH]c2ccccc12 | 200 |
| Cc1ccc(Cl)cc1N1CCN(CCCNC(=O)C2CCN(c3nc4ccccc4[nH]3)CC2)CC1 | 900 |
| COC(=O)c1cccc(CNCc2cccc(-c3ccc(-c4nc5c(C)cccc5[nH]4)s3)c2)c1 | 210 |
| O=C(NCCCCN1CC=C(c2ccc3c(c2OCc2ccccc2)CCCC3)CC1)c1ccc(-c2ccc(C(F)(F)F)cc2)cc1 | 300 |
| CCCCNc1c(CC)c(C)c(C#N)c2nc3ccccc3n12 | 380 |
| O=C(Nc1cccc(CN2CCCN(Cc3ccc(O)cc3)CC2)c1)c1cccc(Cl)c1 | 910 |
| Cn1cccc1C(=O)NCC(CCNc1cc(=O)c2ccccc2[nH]1)NCc1cc(Br)cc(Br)c1 (stereo unspecified) | 910 |
| O=C(Nc1ccsc1)Nc1cccc(-c2cccc(-c3nc4ccc(C(F)(F)F)cc4[nH]3)c2)c1 | 150 |
| N#Cc1ccc(CN2CCCN(Cc3cccc(NC(=O)c4ccc(-c5ccccc5)cc4)c3)CC2)cc1 | 1020 |
| COc1cc(NC(=O)/C=C/c2ccccc2OC(F)(F)F)cc(OCCN2CCC(O)(c3ccccc3)CC2)c1 | 290 |
| Cc1cc(OCCCN2CCC(NS(=O)(=O)c3cc(Br)c(Cl)s3)CC2)c2ccccc2n1 | 850 |
| O=C(Nc1cccc(-c2cccc(-c3nc4ccc(F)cc4[nH]3)c2)c1)c1ccoc1 | 330 |
| CCCCN(CCCC)CCNC(=O)c1cccc(NC(=O)N2CCc3cc(SC)c(C(F)(F)F)cc32)c1 | 810 |
| Cc1cc(NC(=O)c2cccs2)ccc1OC1CCN(Cc2ccc(F)cc2)C1 (stereo unspecified) | 670 |
| CN1CCN(CCCN(Cc2ccc(-c3ccc(CNC4CCCC4)cc3)cc2)C(=O)CCC2CCCC2)CC1 | 890 |
| COc1cc(C(=O)N2CCOC(CCN3CC[C@@H]4c5ccccc5C[C@@H]43)(c3ccc(Cl)c(Cl)c3)C2)cc(OC)c1OC (stereo partly specified) | 530 |
| O=C(NC1CCN(Cc2ccccc2)CC1)c1ccc(-c2nc3cc(Cl)c(F)cc3[nH]2)cc1 | 250 |
| COc1cccc(C(=O)C2CC2CN2CC=C(c3c[nH]c4ccc(OC)nc34)CC2)c1 (stereo unspecified) | 530 |
| CN(C)CC(O)COc1ccc(Nc2ncc([N+](=O)[O-])c(Nc3ccccc3O)n2)cc1 (stereo unspecified) | 760 |
| N=c1n(CCN2CCCCC2)c2ccccc2n1CC(O)c1ccc(Cl)c(Cl)c1 (stereo unspecified) | 320 |
| OC(CNCc1ccccc1)c1cc(OCc2ccccc2)cc(OCc2ccccc2)c1 (stereo unspecified) | 1000 |
| NC(=O)c1cc2nc(NC3CCC3)nc(Nc3cccc4[nH]ncc34)c2[nH]1 | 730 |
| COc1ccccc1C(=O)Nc1ccc(Nc2nc(C)cc(N(C)C)n2)cc1 | 790 |
